Like-named read-outs stand apart in the source and are kept apart here. Where a SMILES comes first, the peptide text is derived from it. [ ]: non-standard residue; d: D form. Arg(Me) = CNC(=N)NCCC[C@H](N)C(=O)O; Hyp = O=C(O)[C@@H]1C[C@@H](O)CN1; azaGly = NNC(=O)O
Legend:
[1] = biological target: T1, human KISS1R (Homo sapiens, UniProt Q969F8); assay: Competitive binding assay, human KISS1R; set-up: expressed in transfected cells
From the text: The binding affinity of API-MA to membrane fractions of KISS1R-expressing recombinant cells was examined in a competitive binding assay.

[2] = biological target: T1, human KISS1R; assay: Intracellular Ca2+ mobilization (fluorometric imaging plate reader), human KISS1R; type: cell-based; set-up: expressed in transfected cells; host or cells: Chinese hamster ovary dihydrofolate reductase negative cells
Experimental: (§1) The effects of API-MA on intracellular Ca^2+ mobilization in KISS1R-expressing recombinant cells were evaluated by performing the fluorometric imaging plate reader assay.

[3] = system: serum LH and FSH; assay: Single dose pharmacodynamics (LH, FSH), Japanese men; type: in vivo, human; conditions: single dose 0.001 to 0.5 mg
Experimental: In the phase 1 clinical study of API-MA, subjects enrolled in the first seven cohorts received single SC bolus doses of 0.001, 0.004, 0.01, 0.04, 0.1, 0.25 or 0.5 mg of API-MA or placebo. Subjects enrolled in the eighth and ninth cohorts received single SC infusion doses of 0.25 or 0.5 mg of API-MA or placebo. The pharmacodynamics of the following hormones were assessed: LH, FSH, dihydroepiandrosterone sulfate (DHEA-S), growth hormone (GH), prolactin (PRL), thyroid-stimulating hormone (TSH), and adrenocorticotropic hormone (ACTH). The pharmacodynamic analysis set consisted of 37 subjects (bolus cohorts: 29; infusion cohorts: 8). […] In addition, blood specimens were collected for the measurement of LH and FSH on the day prior to dosing with API-MA. The time courses of mean serum LH concentrations following a single SC bolus of API-MA at doses ranging from 0.001 mg to 0.5 mg are shown in FIG. 6. The LH concentrations peaked between 12 and 24 hours and generally returned to baseline by 72 hours postdose. The magnitudes and durations of the LH concentration increases were similar across the dose range, 0.001 to 0.5 mg. The LH time courses were similar following a single 2-hour SC infusion of API-MA (data not shown).

[4] = Tissue distribution and excretion of radioactivity in rats; type: in vivo
Experimental: The concentrations of the radioactivity in the tissues of male albino and pigmented rats were investigated after a single IV administration of [^14C]API-MA at 1.049 mg/kg (1 mg/kg API-FB). […] The radioactivity, measured in albino rats, was rapidly eliminated from all of the tissues after IV administration of API-MA.
The urinary, fecal, biliary, and expiratory excretion of the dosed radioactivity was investigated after a single SC or IV administration of [^14C]API-MA at 1.049 mg/kg (1 mg/kg API-FB) to male Sprague-Dawley rats in two studies.

[5] = 1-month depot PK, prostate cancer patients; type: in vivo, human; conditions: for AUC(0-t) / Cmax / Tmax: male, human, plasma; for AUC(0-t): sc; for AUC(0-t) / Cmax / Tmax / Tlqc: prostate cancer patients; for AUC(0-t) / Cmax / Tlqc: geometric mean; for Tmax: read-out: Tmax (median)
Experimental: Another study enrolled prostate cancer patients who had completed their primary treatment for prostate cancer at least 6 months prior to screening and were either on GnRH therapy or were potential future candidates for GnRH therapy. Nine patients were enrolled, three in each dose group (6, 12, and 24 mg). All were white men. Patients received API-MA as a single 1-month depot SC injection into the abdomen that was intended to initiate both a high-burst release of API-MA and rapid stimulation of hypothalamic-pituitary-gonadal-axis, and was expected to suppress testosterone. Overall, 4 of 9 patients received concomitant GnRH therapy.

[6] = system: monkey KISS1R; assay: Intracellular Ca2+ mobilization (fluorometric imaging plate reader), monkey KISS1R; type: cell-based
Experimental: as §1

[7] = biological target: T2, CYP1A2 (Homo sapiens, UniProt P05177); assay: Inhibition of recombinant CYP1A2; type: in vitro ADME
T2 sequence (P05177 1-516): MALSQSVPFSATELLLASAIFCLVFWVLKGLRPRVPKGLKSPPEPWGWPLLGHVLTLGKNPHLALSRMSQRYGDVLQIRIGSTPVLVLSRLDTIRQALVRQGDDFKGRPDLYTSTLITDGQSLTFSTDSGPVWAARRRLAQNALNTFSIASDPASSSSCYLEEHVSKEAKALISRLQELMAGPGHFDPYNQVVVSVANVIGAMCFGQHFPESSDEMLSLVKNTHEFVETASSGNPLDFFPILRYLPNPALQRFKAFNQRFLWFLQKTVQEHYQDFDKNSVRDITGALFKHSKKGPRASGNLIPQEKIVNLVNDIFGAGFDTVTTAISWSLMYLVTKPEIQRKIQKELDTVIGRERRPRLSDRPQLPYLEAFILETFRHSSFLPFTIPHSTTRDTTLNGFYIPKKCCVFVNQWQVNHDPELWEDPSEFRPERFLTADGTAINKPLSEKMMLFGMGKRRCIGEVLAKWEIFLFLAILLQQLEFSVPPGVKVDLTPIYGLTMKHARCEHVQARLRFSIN

[8] = rats, IV 1 mg/kg API-FB, 24 hours postdose, first study
[9] = rats, IV 1 mg/kg API-FB, 48 hours postdose, second study
[10] = rats, SC 1 mg/kg API-FB, 24 hours postdose, first study
[11] = rats, SC 1 mg/kg API-FB, 48 hours postdose, second study

T1 sequence (Q969F8 whole entry): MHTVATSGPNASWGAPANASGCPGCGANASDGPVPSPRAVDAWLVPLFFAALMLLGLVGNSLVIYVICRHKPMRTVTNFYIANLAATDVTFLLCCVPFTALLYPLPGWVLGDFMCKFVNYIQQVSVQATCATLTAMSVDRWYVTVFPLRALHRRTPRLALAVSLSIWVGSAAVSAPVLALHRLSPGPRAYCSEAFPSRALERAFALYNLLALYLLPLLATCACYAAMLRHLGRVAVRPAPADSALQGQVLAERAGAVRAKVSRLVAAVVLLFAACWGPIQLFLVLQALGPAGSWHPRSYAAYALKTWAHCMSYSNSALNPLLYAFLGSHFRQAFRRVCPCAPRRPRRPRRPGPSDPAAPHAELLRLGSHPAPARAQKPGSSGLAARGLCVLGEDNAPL

Q: Which IC50 [1] does the source give for `CC(=O)O.CNC(=N)NCCC[C@H](NC(=O)[C@H](CC(C)C)NC(=O)NNC(=O)[C@H](Cc1ccccc1)NC(=O)[C@@H](NC(=O)[C@H](CC(N)=O)NC(=O)[C@@H]1C[C@@H](O)CN1C(=O)[C@@H](Cc1ccc(O)cc1)NC(C)=O)[C@@H](C)O)C(=O)N[C@@H](Cc1c[nH]c2ccccc12)C(N)=O` [API-MA, 2-(N-Acetyl-D-tyrosyl-trans-4-hydroxy-L-prolyl-Lasparaginyl-L-threonyl-L-phenylalanyl)-hydrazinocarbonyl-L-leucyl-Nω-methyl-L-arginyl-L-tryptophanamide monoacetate] (Ac-[dY][Hyp]NTF[azaGly]L[Arg(Me)]W-NH2) here?
A: 0.23 nM

Q: What about the EC50 [2] of the same compound?
A: 0.266 nM

Q: What about the “Ratio of EC50 of API-MA to kisspeptin (45-54)” value ([2]; human KISS1R) of the same compound?
A: 0.85

Q: What about the “Time of FSH return to baseline / predose level” value [3] of the same compound?
A: ≤ 72 h

Q: And the “Time of LH return to baseline” value [3]?
A: ≤ 72 h

Q: And the “Tissue distribution of radioactivity” value ([4]; male albino and pigmented rats, single IV 1 mg/kg API-FB)?
A: distributed widely into the tissues

Q: And the “Affinity for melanin in vivo” value ([4]; pigmented rats, single IV 1 mg/kg API-FB)?
A: little affinity for melanin in vivo

Q: What about the “Excretion of radioactivity in bile” value [4, 8] of the same compound?
A: 20.7%

Q: And the “Excretion of radioactivity in feces” value [4, 8]?
A: 0.3%

Q: And the “Excretion of radioactivity in urine” value [4, 8]?
A: 76.6%

Q: And the “Excretion of radioactivity in feces” value [4, 9]?
A: 28.2%

Q: And the “Excretion of radioactivity in urine” value [4, 9]?
A: 70.0%

Q: And the “Excretion of radioactivity in bile” value [4, 10]?
A: 15.5%

Q: What about the “Excretion of radioactivity in feces” value [4, 10] of the same compound?
A: 0.2%

Q: What about the “Excretion of radioactivity in urine” value [4, 10] of the same compound?
A: 84.7%

Q: What about the “Excretion of radioactivity in feces” value [4, 11] of the same compound?
A: 20.4%

Q: And the “Excretion of radioactivity in urine” value [4, 11]?
A: 78.1%

Q: What about the Excretion via expiration ([4]; rats, SC or IV 1 mg/kg API-FB, second study) of the same compound?
A: minimal

Q: And the “Detectability of API-MA in plasma” value ([5]; 1-month depot 6, 12 or 24 mg, all cases)?
A: not detectable by 8 weeks postdose

Q: What about the “AUC(0-24) as share of AUC(0-tlqc)” value ([5]; 1-month depot 6, 12 or 24 mg, burst phase) of the same compound?
A: over 60%

Q: And the AUC(0-t) ([5]; 6 mg/month, 1-month depot SC 6 mg/month, read-out: AUC (0-24) (converted))?
A: 79.6 ng·h/mL

Q: What about the AUC(0-t) ([5]; 6 mg/month, 1-month depot SC 6 mg/month, read-out: AUC (0-29 d) (converted)) of the same compound?
A: 104 ng·h/mL

Q: What about the AUC(0-t) ([5]; 6 mg/month, 1-month depot SC 6 mg/month, read-out: AUC (0-tlqc) (converted)) of the same compound?
A: 119 ng·h/mL

Q: And the AUC(0-t) ([5]; 12 mg/month, 1-month depot SC 12 mg/month, read-out: AUC (0-24) (converted))?
A: 119 ng·h/mL

Q: What about the AUC(0-t) ([5]; 12 mg/month, 1-month depot SC 12 mg/month, read-out: AUC (0-29 d) (converted)) of the same compound?
A: 138 ng·h/mL

Q: What about the AUC(0-t) ([5]; 12 mg/month, 1-month depot SC 12 mg/month, read-out: AUC (0-tlqc) (converted)) of the same compound?
A: 158 ng·h/mL

Q: What about the AUC(0-t) ([5]; 24 mg/month, 1-month depot SC 24 mg/month, read-out: AUC (0-24) (converted)) of the same compound?
A: 179 ng·h/mL

Q: And the AUC(0-t) ([5]; 24 mg/month, 1-month depot SC 24 mg/month, read-out: AUC (0-29 d) (converted))?
A: 209 ng·h/mL

Q: What about the AUC(0-t) ([5]; 24 mg/month, 1-month depot SC 24 mg/month, read-out: AUC (0-tlqc) (converted)) of the same compound?
A: 239 ng·h/mL

Q: And the Cmax ([5]; 1-month depot SC 6 mg/month)?
A: 16.5 ng/mL

Q: What about the Tmax ([5]; 1-month depot SC 6 mg/month) of the same compound?
A: 2 h

Q: What about the Cmax ([5]; 1-month depot SC 12 mg/month) of the same compound?
A: 14.4 ng/mL

Q: And the Tmax ([5]; 1-month depot SC 12 mg/month)?
A: 2.05 h

Q: What about the Cmax ([5]; 1-month depot SC 24 mg/month) of the same compound?
A: 25.5 ng/mL

Q: And the Tmax ([5]; 1-month depot SC 24 mg/month)?
A: 2.05 h

Q: And the Tlqc ([5]; 1-month depot SC 6 mg/month)?
A: 42.9 h

Q: And the Tlqc ([5]; 1-month depot SC 12 mg/month)?
A: 41.5 h

Q: And the Tlqc ([5]; 1-month depot SC 24 mg/month)?
A: 47.2 h

Q: What about the EC50 ([6]; CHO dhfr- cells expressing monkey KISS1R) of the same compound?
A: 0.074 nM

Q: And the “Ratio of EC50 of API-MA to kisspeptin (45-54)” value ([6]; monkey KISS1R)?
A: 0.94

Q: What about the IC50 [7] of the same compound?
A: > 7.78 nM
